Calls of active or inactive are those of the source. The calls are words filed in the database; no cut-off is given here.
Columns and labels:
[1] = tested on: MDA-MB-231; assay: Antiproliferative activity against human MDA-MB-231 cells at 100 uM measured by crystal violet staining based colony forming assay; type: functional, cell-based
[2] = tested on: MDA-MB-231; assay: Induction of apoptosis in human MDA-MB-231 cells at 100 uM measured after 24 hrs by Hoechst staining based fluorescence microscopic method; type: functional, cell-based
[3] = target: T1, Protein cereblon/Eukaryotic elongation factor 2 kinase (Homo sapiens) (UniProt O00418+Q96SW2); assay: Protac activity at eEF2K/E3 ubiquitin ligase in human MDA-MB-231 cells assessed as degradation of eEF2K at 200 uM measured after 24 hrs by western blot assay; type: cell-based
T1 sequence (Q96SW2 whole entry, looked up, one chain of several): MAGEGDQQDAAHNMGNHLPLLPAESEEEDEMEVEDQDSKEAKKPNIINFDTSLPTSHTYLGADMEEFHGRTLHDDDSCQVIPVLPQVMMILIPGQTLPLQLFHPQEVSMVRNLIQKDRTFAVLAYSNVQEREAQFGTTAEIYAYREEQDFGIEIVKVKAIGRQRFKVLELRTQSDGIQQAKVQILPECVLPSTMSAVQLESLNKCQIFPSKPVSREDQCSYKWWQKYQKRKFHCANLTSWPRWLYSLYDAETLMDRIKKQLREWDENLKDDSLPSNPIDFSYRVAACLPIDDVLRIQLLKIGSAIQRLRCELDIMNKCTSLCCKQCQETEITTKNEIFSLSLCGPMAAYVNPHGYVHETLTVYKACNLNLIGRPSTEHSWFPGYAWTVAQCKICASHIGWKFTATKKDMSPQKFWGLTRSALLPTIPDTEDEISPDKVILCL

[4] = tested on: MDA-MB-231; assay: Induction of apoptosis in human MDA-MB-231 cells assessed as necrotic cells at 100 uM measured after 24 hrs by Annexin V/PI staining based flowcytometry method (reference value: 0.44%); type: functional
[5] = target: T1, Protein cereblon/Eukaryotic elongation factor 2 kinase (Homo sapiens); assay: Protac activity at eEF2K/E3 ubiquitin ligase in human MDA-MB-231 cells assessed as degradation of eEF2K measured after 24 hrs by western blot assay; type: cell-based; conditions: dose 50-200 µM
[6] = tested on: MDA-MB-231; assay: Induction of apoptosis in human MDA-MB-231 cells assessed as late apoptotic cells at 200 uM measured after 24 hrs by Annexin V/PI staining based flowcytometry method (reference value: 1.81%); type: functional
[7] = tested on: MDA-MB-231; assay: Induction of apoptosis in human MDA-MB-231 cells assessed as viable cells at 200 uM measured after 24 hrs by Annexin V/PI staining based flowcytometry method (reference value: 94.63%); type: functional; conditions: read-out: Activity
[8] = tested on: MDA-MB-231; assay: Induction of apoptosis in human MDA-MB-231 cells assessed as decrease in Bcl2 expression at 50 to 200 uM measured after 24 hrs by western blot assay; type: functional, cell-based; conditions: dose 50-200 µM
[9] = tested on: MDA-MB-231; assay: Induction of apoptosis in human MDA-MB-231 cells assessed as early apoptotic cells at 50 uM measured after 24 hrs by Annexin V/PI staining based flowcytometry method (reference value: 3.12%); type: functional
[10] = tested on: MCF-10A; assay: Cytotoxicity against human MCF-10A cells; type: cell-based
[11] = tested on: MDA-MB-231; assay: Induction of apoptosis in human MDA-MB-231 cells assessed as late apoptotic cells at 50 uM measured after 24 hrs by Annexin V/PI staining based flowcytometry method (reference value: 1.81%); type: functional
[12] = tested on: MDA-MB-231; assay: Induction of apoptosis in human MDA-MB-231 cells assessed as viable cells at 100 uM measured after 24 hrs by Annexin V/PI staining based flowcytometry method (reference value: 94.63%); type: functional; conditions: read-out: Activity
[13] = target: T1, Protein cereblon/Eukaryotic elongation factor 2 kinase (Homo sapiens); assay: Protac activity at eEF2K/E3 ubiquitin ligase in human MDA-MB-231 cells assessed as degradation of p-eEF2K measured after 24 hrs by western blot assay; type: cell-based; conditions: dose 50-200 µM
[14] = tested on: MDA-MB-231; assay: Induction of apoptosis in human MDA-MB-231 cells assessed as upregulation of cleaved caspase3 expression at 50 to 200 uM measured after 24 hrs by western blot assay; type: functional, cell-based; conditions: dose 50-200 µM
[15] = tested on: MDA-MB-231; assay: Induction of apoptosis in human MDA-MB-231 cells assessed as early apoptotic cells at 200 uM measured after 24 hrs by Annexin V/PI staining based flowcytometry method (reference value: 3.12%); type: functional
[16] = tested on: MDA-MB-231; assay: Induction of apoptosis in human MDA-MB-231 cells assessed as viable cells at 50 uM measured after 24 hrs by Annexin V/PI staining based flowcytometry method (reference value: 94.63%); type: functional; conditions: read-out: Activity
[17] = tested on: MDA-MB-231; assay: Induction of apoptosis in human MDA-MB-231 cells assessed as necrotic cells at 200 uM measured after 24 hrs by Annexin V/PI staining based flowcytometry method (reference value: 0.44%); type: functional
[18] = target: T1, Protein cereblon/Eukaryotic elongation factor 2 kinase (Homo sapiens); assay: Protac activity at eEF2K/E3 ubiquitin ligase in human MDA-MB-231 cells assessed as degradation of eEF2K at 100 uM pretreated with thalidomide for 2 hrs followed by compound addition measured after 8 hrs by western blot assay; type: cell-based
[19] = tested on: MDA-MB-231; assay: Induction of apoptosis in human MDA-MB-231 cells assessed as upregulation of Bax expression at 50 to 200 uM measured after 24 hrs by western blot assay; type: functional, cell-based; conditions: dose 50-200 µM
[20] = tested on: MDA-MB-231; assay: Induction of apoptosis in human MDA-MB-231 cells assessed as early apoptotic cells at 100 uM measured after 24 hrs by Annexin V/PI staining based flowcytometry method (reference value: 3.12%); type: functional
[21] = tested on: MDA-MB-231; assay: Induction of apoptosis in human MDA-MB-231 cells assessed as necrotic cells at 50 uM measured after 24 hrs by Annexin V/PI staining based flowcytometry method (reference value: 0.44%); type: functional
[22] = target: T1, Protein cereblon/Eukaryotic elongation factor 2 kinase (Homo sapiens); assay: Protac activity at eEF2K/E3 ubiquitin ligase in human MDA-MB-231 cells assessed as degradation of eEF2K at 100 uM pretreated with MG-132 for 2 hrs followed by compound addition measured after 8 hrs by western blot assay; type: cell-based
[23] = target: T1, Protein cereblon/Eukaryotic elongation factor 2 kinase (Homo sapiens); assay: Protac activity at eEF2K/E3 ubiquitin ligase in human MDA-MB-231 cells assessed as degradation of eEF2K at 12.5 to 200 uM measured after 24 hrs by western blot assay; type: cell-based; conditions: dose 12.5-200 µM
[24] = tested on: MDA-MB-231; assay: Induction of apoptosis in human MDA-MB-231 cells assessed as late apoptotic cells at 100 uM measured after 24 hrs by Annexin V/PI staining based flowcytometry method (reference value: 1.81%); type: functional
[25] = target: T2, Eukaryotic elongation factor 2 kinase (Homo sapiens, UniProt O00418); assay: Inhibition of eEF2K (unknown origin)
T2 sequence (O00418 whole entry): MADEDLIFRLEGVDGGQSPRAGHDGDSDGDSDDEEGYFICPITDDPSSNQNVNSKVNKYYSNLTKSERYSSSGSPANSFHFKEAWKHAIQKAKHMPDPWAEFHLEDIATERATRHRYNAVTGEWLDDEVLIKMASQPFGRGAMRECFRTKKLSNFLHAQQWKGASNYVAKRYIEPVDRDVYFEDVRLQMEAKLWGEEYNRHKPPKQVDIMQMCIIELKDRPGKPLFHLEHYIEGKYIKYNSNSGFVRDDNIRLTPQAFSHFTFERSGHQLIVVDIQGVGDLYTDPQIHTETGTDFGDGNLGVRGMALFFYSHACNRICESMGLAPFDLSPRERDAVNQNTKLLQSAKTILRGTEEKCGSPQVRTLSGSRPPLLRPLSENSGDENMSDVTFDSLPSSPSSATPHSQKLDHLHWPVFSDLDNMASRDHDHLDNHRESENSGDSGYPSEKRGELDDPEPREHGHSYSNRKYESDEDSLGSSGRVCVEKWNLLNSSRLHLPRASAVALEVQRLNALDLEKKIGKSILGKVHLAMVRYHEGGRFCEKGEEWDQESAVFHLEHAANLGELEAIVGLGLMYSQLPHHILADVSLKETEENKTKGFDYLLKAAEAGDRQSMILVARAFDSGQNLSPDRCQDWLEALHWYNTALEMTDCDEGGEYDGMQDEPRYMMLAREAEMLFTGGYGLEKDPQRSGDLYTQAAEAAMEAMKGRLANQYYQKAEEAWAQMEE

[26] = tested on: MDA-MB-231; assay: Effect on eEF2K expression in human MDA-MB-231 cells at 10 uM measured after 2 hrs by western blot assay; type: functional, cell-based

## CCn1c(=O)c2cc(C(N)=O)c(N)nc2n(C2CC2)c1=O
[1]
  Activity: Active
[2]
  Activity: Active

## CCn1c(=O)n(CC(=O)NCCOCCNc2cccc3c2C(=O)N(C2CCC(=O)NC2=O)C3=O)c(=O)c2cc(C(N)=O)c(N)cc21 (configuration not stated)
[3]
  Activity: 15%

## NC(=O)c1cc2c(=O)n(CC(=O)NCCCCNC(=O)COc3cccc4c3C(=O)N(C3CCC(=O)NC3=O)C4=O)c(=O)n(C3CC3)c2nc1N (configuration not stated)
[3]
  Activity: inactive

## NC(=O)c1cc2c(=O)n(CC(=O)NCCOCCNc3cccc4c3C(=O)N(C3CCC(=O)NC3=O)C4=O)c(=O)n(C3CC3)c2cc1N (configuration not stated)
[3]
  Activity: inactive

## CCn1c(=O)n(CC(=O)NCCCCNC(=O)COc2cccc3c2C(=O)N(C2CCC(=O)NC2=O)C3=O)c(=O)c2cc(C(N)=O)c(N)nc21 (configuration not stated)
[3]
  Activity: 26%

## NC(=O)c1cc2c(=O)n(CC(=O)NCCNc3cccc4c3C(=O)N(C3CCC(=O)NC3=O)C4=O)c(=O)n(C3CC3)c2nc1N (configuration not stated)
[3]
  Activity: inactive

## CCn1c(=O)n(CC(=O)NCCCCCNC(=O)COc2cccc3c2C(=O)N(C2CCC(=O)NC2=O)C3=O)c(=O)c2cc(C(N)=O)c(N)cc21 (configuration not stated)
[3]
  Activity: 32%

## NC(=O)c1cc2c(=O)n(CC(=O)NCCOCCNC(=O)COc3cccc4c3C(=O)N(C3CCC(=O)NC3=O)C4=O)c(=O)n(C3CC3)c2cc1N (configuration not stated)
[3]
  Activity: inactive

## CCn1c(=O)n(CC(=O)NCCOCCNC(=O)COc2cccc3c2C(=O)N(C2CCC(=O)NC2=O)C3=O)c(=O)c2cc(C(N)=O)c(N)nc21 (configuration not stated)
[4]
  Activity: 0.68%
[5]
  Activity: Active
[6]
  Activity: 6.12%
[7]
  viability at 200 µM: 67.6%
[8]
  Activity: Active
[9]
  Activity: 5.29%
[10]
  Activity: Toxic
[11]
  Activity: 3.24%
[12]
  viability at 100 µM: 84.4%
[13]
  Activity: Active
[14]
  Activity: Active
[1]
  Activity: Active
[15]
  Activity: 24.72%
[16]
  viability at 50 µM: 89.9%
[17]
  Activity: 1.57%
[18]
  Activity: inactive
[19]
  Activity: Active
[20]
  Activity: 7.51%
[21]
  Activity: 1.6%
[22]
  Activity: inactive
[2]
  Activity: Active
[23]
  Activity: Active
[3]
  Activity: 56.7%
[24]
  Activity: 7.38%

## NC(=O)c1cc2c(=O)n(CC(=O)NCCCNC(=O)COc3cccc4c3C(=O)N(C3CCC(=O)NC3=O)C4=O)c(=O)n(C3CC3)c2cc1N (configuration not stated)
[3]
  Activity: inactive

## NC(=O)c1cc2c(=O)n(CC(=O)NCCNC(=O)COc3cccc4c3C(=O)N(C3CCC(=O)NC3=O)C4=O)c(=O)n(C3CC3)c2nc1N (configuration not stated)
[3]
  Activity: inactive

## NC(=O)c1cc2c(=O)n(CC(=O)NCCCCCCNc3cccc4c3C(=O)N(C3CCC(=O)NC3=O)C4=O)c(=O)n(C3CC3)c2nc1N (configuration not stated)
[3]
  Activity: inactive

## CCn1c(=O)n(CC(=O)NCCCCCNc2cccc3c2C(=O)N(C2CCC(=O)NC2=O)C3=O)c(=O)c2cc(C(N)=O)c(N)cc21 (configuration not stated)
[3]
  Activity: 24%

## Cc1ccc(C2=NC(C)(O)CC(C(C)C)[Se]2)cc1 (configuration not stated)
[25]
  IC50: 0.31 µM

## O=C1CCC(N2C(=O)c3ccccc3C2=O)C(=O)N1 (configuration not stated)
[26]
  Activity: inactive

## N#CC1=C(N)SC(N)=C(C#N)C1c1ccccc1F
[25]
  IC50: 60 µM

## CCn1c(=O)n(CC(=O)NCCNc2cccc3c2C(=O)N(C2CCC(=O)NC2=O)C3=O)c(=O)c2cc(C(N)=O)c(N)nc21 (configuration not stated)
[3]
  Activity: inactive

## NC(=O)c1cc2c(=O)n(CC(=O)NCCCCCNc3cccc4c3C(=O)N(C3CCC(=O)NC3=O)C4=O)c(=O)n(C3CC3)c2cc1N (configuration not stated)
[3]
  Activity: inactive

## CCn1c(=O)n(CC(=O)NCCNC(=O)COc2cccc3c2C(=O)N(C2CCC(=O)NC2=O)C3=O)c(=O)c2cc(C(N)=O)c(N)nc21 (configuration not stated)
[3]
  Activity: 10%

## CCn1c(=O)n(CC(=O)NCCCCNc2cccc3c2C(=O)N(C2CCC(=O)NC2=O)C3=O)c(=O)c2cc(C(N)=O)c(N)nc21 (configuration not stated)
[3]
  Activity: 35%

## CCn1c(=O)n(CC(=O)NCCCCCCNC(=O)COc2cccc3c2C(=O)N(C2CCC(=O)NC2=O)C3=O)c(=O)c2cc(C(N)=O)c(N)nc21 (configuration not stated)
[3]
  Activity: 35.3%

## NC(=O)c1cc2c(=O)n(CC(=O)NCCCCNc3cccc4c3C(=O)N(C3CCC(=O)NC3=O)C4=O)c(=O)n(C3CC3)c2nc1N (configuration not stated)
[3]
  Activity: inactive

## CCn1c(=O)n(CC(=O)NCCCNc2cccc3c2C(=O)N(C2CCC(=O)NC2=O)C3=O)c(=O)c2cc(C(N)=O)c(N)nc21 (configuration not stated)
[3]
  Activity: 20%

## CCn1c(=O)n(CC(=O)NCCCNC(=O)COc2cccc3c2C(=O)N(C2CCC(=O)NC2=O)C3=O)c(=O)c2cc(C(N)=O)c(N)cc21 (configuration not stated)
[3]
  Activity: 15.4%

## NC(=O)c1cc2c(=O)n(CC(=O)NCCCCCNC(=O)COc3cccc4c3C(=O)N(C3CCC(=O)NC3=O)C4=O)c(=O)n(C3CC3)c2cc1N (configuration not stated)
[3]
  Activity: inactive

## NC(=O)c1cc2c(=O)n(CC(=O)NCCCCCCNC(=O)COc3cccc4c3C(=O)N(C3CCC(=O)NC3=O)C4=O)c(=O)n(C3CC3)c2nc1N (configuration not stated)
[3]
  Activity: inactive

## NC(=O)c1cc2c(=O)n(CC(=O)NCCCNc3cccc4c3C(=O)N(C3CCC(=O)NC3=O)C4=O)c(=O)n(C3CC3)c2nc1N (configuration not stated)
[3]
  Activity: inactive

## CCn1c(=O)n(CC(=O)NCCCCCCNc2cccc3c2C(=O)N(C2CCC(=O)NC2=O)C3=O)c(=O)c2cc(C(N)=O)c(N)nc21 (configuration not stated)
[3]
  Activity: 20%
